Target: T1, BaF3 BRAF-KIAA1549 fusion cells (Homo sapiens, UniProt P15056)
T1 construct: The BRAF-KIAA1549 fusion mutant was subcloned into pMXs-IRES-Blasticidin (RTV-016, Cell Biolabs, San Diego, CA); fused on or other part: Q9HCM3 (UPF0606 protein KIAA1549)
Assay: BaF3 BRAF-KIAA1549 fusion cell proliferation assay (CellTiterGlo)
Type: cell-based
Conditions: 96 hours incubation, potency code
Procedure: Retroviral Production: The BRAF-KIAA1549 fusion mutant was subcloned into pMXs-IRES-Blasticidin (RTV-016, Cell Biolabs, San Diego, CA). Retrovirus was produced by transfection of HEK 293T cells with the retroviral BRAF mutant expression vector pMXs-IRES-Blasticidin (RTV-016, Cell Biolabs), pCMV-Gag-Pol vector and pCMV-VSV-G-Envelope vector. Briefly, HEK 293T cells were plated in Poly-D-lysine coated 6-well plate (2.5×10^5 cells per well) and incubated overnight. The next day, retroviral plasmids (1 μg of BRAF-KIAA fusion mutant, 0.32 μg of pCMV-Gag-Pol and 0.165 μg pCMV-VSV-G) were mixed in 300 μL of Optimem (31985, Life Technologies). The mixture was incubated at room temperature for 5 minutes and then added to Optimem containing transfection reagent Lipofectamine (11668, Invitrogen) and incubated for 20 minutes. The mixture was then added dropwise to HEK 293T cells. The next day the medium was replaced with fresh culture medium and retrovirus was harvested at 24 hours.
Generation of BRAF-KIAA1549 fusion stable cell line: BaF3 cells were plated in V-bottom 96 well plate (COSTAR #3894) in 80 μL of RPMI/10% FBS and 0.01 ng/ml mouse IL-3; supplemented with 8 μg/mL polybrene (4×10^4 cells/well). Cells were transduced with 20 μL of BRAF-KIAA1549 fusion viral supernatant by centrifuging for 30 minutes at 1000 rpm. Cells were placed in a 37° C. incubator overnight. Next day 100 μL of RPMI/10% FBS and 0.01 ng/ml mouse IL-3 was added. After 24 hours, 100 μL of cells were transferred to a 24 well plate containing 900 μL of RPMI/10% FBS and 15 μg/mL Blasticidin. Contents of the 24 well plate were sampled for cell viability via CellTiterGlo (Promega) over a 2-week period.
Assay for cell proliferation: BaF3 BRAF-KIAA1549 fusion cells were resuspended at 1.5×10^5c/mL in RPMI containing 10% Heat Inactivated FBS, 1% L-glutamine and dispensed in duplicate ([…]) into 384 well plates. To determine the effect of compound on cell proliferation, BaF3 BRAF-KIAA1549 fusion cells were incubated for 96 hours in the presence of vehicle control (DMSO) or compound at varying concentrations. Inhibition of cell growth was determined by luminescent quantification (Envision by Perkin Elmer) of intracellular ATP content using CellTiterGlo (Promega), according to the protocol provided by the manufacturer. To determine the IC50 values, the vehicle-treated cells were normalized as viable cells and analyzed using the CDD Vault, Collaborative Drug Discovery, Burlingame, CA (the Levenberg-Marquardt algorithm; Levenberg, K., […]; Marquardt, D., 1963).
Tables A1 and A2 assign each compound a code for potency in the BaF3 BRAF-KIAA1549 fusion cell proliferation assay: A, B, C, or D. According to the code, A represents an IC50 value <20 nM; B represents an IC50 value ≥20 nM and <100 nM; C represents an IC50 value ≥100 nM and <500 nM; and D represents an IC50 value ≥500 nM.

T1 sequence (P15056 whole entry, change not shown, the tested form may be a part): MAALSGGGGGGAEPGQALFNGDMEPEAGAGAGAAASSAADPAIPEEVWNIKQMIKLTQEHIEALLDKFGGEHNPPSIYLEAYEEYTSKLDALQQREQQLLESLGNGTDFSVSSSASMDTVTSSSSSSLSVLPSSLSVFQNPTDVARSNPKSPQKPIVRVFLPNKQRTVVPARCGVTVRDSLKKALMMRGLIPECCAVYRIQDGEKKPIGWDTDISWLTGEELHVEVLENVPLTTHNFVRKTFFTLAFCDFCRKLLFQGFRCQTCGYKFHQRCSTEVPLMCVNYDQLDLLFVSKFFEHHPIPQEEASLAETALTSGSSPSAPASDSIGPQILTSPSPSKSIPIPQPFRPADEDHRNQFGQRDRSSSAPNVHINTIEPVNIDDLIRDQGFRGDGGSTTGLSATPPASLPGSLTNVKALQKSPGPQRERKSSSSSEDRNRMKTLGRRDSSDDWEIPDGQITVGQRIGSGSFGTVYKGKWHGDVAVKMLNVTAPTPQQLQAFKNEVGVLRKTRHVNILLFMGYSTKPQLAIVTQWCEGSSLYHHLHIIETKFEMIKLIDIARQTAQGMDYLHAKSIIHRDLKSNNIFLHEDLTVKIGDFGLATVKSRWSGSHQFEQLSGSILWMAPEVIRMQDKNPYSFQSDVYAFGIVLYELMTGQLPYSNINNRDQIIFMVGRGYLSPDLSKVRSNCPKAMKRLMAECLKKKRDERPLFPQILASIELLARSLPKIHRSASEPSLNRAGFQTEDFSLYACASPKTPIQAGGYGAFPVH

GI50, ≥ 500 nM:
Cc1ccc(NC(=O)c2cnc(C)c(C#N)c2)cc1Nc1ncccc1-c1ncnc2[nH]cnc12 [Compound I-48, N-(3-(3-(9H-purin-6-yl)pyridin-2-ylamino)-4-methylphenyl)-5-cyano-6-methylnicotinamide]
Cc1ccc(NC(=O)CC2CCNC(C(F)(F)F)C2)cc1Nc1ncccc1-c1ncnc2[nH]cnc12 (centres unmarked) [Compound I-76, N-(3-((3-(9H-purin-6-yl)pyridin-2-yl)amino)-4-methylphenyl)-2-(2-(trifluoromethyl)piperidin-4-yl)acetamide]
Cc1ccc(NC(=O)c2cc(C(F)(F)F)ccn2)cc1Nc1nccc(C)c1-c1ncnc2[nH]cnc12 [IA-152]
Cc1ccc(NC(=O)CC2CCNCCO2)cc1Nc1ncccc1-c1ncnc2[nH]cnc12 (centres unmarked) [Compound I-83, N-(3-((3-(9H-purin-6-yl)pyridin-2-yl)amino)-4-methylphenyl)-2-(1,4-oxazepan-7-yl)acetamide]
Cc1ccc(NC(=O)c2ccc(C)c(C#N)n2)cc1Nc1ncccc1-c1ncnc2[nH]cnc12 [Compound I-51, N-(3-(3-(9H-purin-6-yl)pyridin-2-ylamino)-4-methylphenyl)-6-cyano-5-methylpicolinamide]

GI50, 100 to 500 nM:
Cc1cc(NC(=O)c2cc(C(F)(F)F)ccn2)cc(Nc2ncccc2-c2ncnc3[nH]cnc23)c1C [Compound I-63, N-(3-((3-(9H-purin-6-yl)pyridin-2-yl)amino)-4,5-dimethylphenyl)-4-(trifluoromethyl)picolinamide]
Cc1ccc(NC(=O)C[C@H]2CCN[C@@H](C(F)(F)F)C2)cc1Nc1ncccc1-c1ncnc2[nH]cnc12 (single isomer, unassigned) [IA-141]
Cc1ccc(NC(=O)c2cc(C(F)(F)F)c(OC3CN(C)C3)cn2)cc1Nc1ncccc1-c1ncnc2[nH]cnc12 [IA-94, N-(3-(3-(9H-purin-6-yl)pyridin-2-ylamino)-4-methylphenyl)-5-(1-methylazetidin-3-yloxy)-4-(trifluoromethyl)picolinamide]
Cc1ccc(NC(=O)c2ccc(C(F)(F)F)c(C#N)n2)cc1Nc1ncccc1-c1ncnc2[nH]cnc12 [Compound I-59, N-(3-((3-(9H-purin-6-yl)pyridin-2-yl)amino)-4-methylphenyl)-6-cyano-5-(trifluoromethyl)picolinamide]

GI50, 20 to 100 nM:
Cc1ccc(-c2ncnc3[nH]cnc23)c(Nc2cc(NC(=O)c3cc(C(F)(F)F)ccn3)ccc2C)n1 [Compound I-67, N-(4-methyl-3-((6-methyl-3-(9H-purin-6-yl)pyridin-2-yl)amino)phenyl)-4-(trifluoromethyl)picolinamide]
Cc1ccc(NC(=O)c2cc(C(F)(F)F)c(OC3CNC3)cn2)cc1Nc1ncccc1-c1ncnc2[nH]cnc12 [IA-96, N-(3-(3-(9H-purin-6-yl)pyridin-2-ylamino)-4-methylphenyl)-5-(azetidin-3-yloxy)-4-(trifluoromethyl)picolinamide]
Cc1ccc(NC(=O)C[C@@H]2CCO[C@H](C(F)(F)F)C2)cc1Nc1ncccc1-c1ncnc2[nH]cnc12 (single isomer, unassigned) [IA-149]
Cc1cc(C(F)(F)F)cc(C(=O)Nc2ccc(C)c(Nc3ncccc3-c3ncnc4[nH]cnc34)c2)n1 [IA-93, N-(3-((3-(9H-purin-6-yl)pyridin-2-yl)amino)-4-methylphenyl)-6-methyl-4-(trifluoromethyl)picolinamide]
Cc1ccc(NC(=O)Cn2cnc(C(F)(F)F)n2)cc1Nc1ncccc1-c1ncnc2[nH]cnc12 [Compound I-78, N-(3-((3-(9H-purin-6-yl)pyridin-2-yl)amino)-4-methylphenyl)-2-(3-(trifluoromethyl)-1H-1,2,4-triazol-1-yl)acetamide]
Cc1ccc(NC(=O)c2cc(C(F)(F)F)ccn2)cc1Nc1ncccc1-c1ncnc2[nH]c(OCCO)nc12 [IA-125, N-(3-(3-(8-(2-hydroxyethoxy)-9H-purin-6-yl)pyridin-2-ylamino)-4-methylphenyl)-4-(trifluoromethyl)picolinamide]
Cc1ccc(NC(=O)c2cnc(C(F)(F)F)c(C#N)c2)cc1Nc1ncccc1-c1ncnc2[nH]cnc12 [Compound I-70, N-(3-((3-(9H-purin-6-yl)pyridin-2-yl)amino)-4-methylphenyl)-5-cyano-6-(trifluoromethyl)nicotinamide]
Cc1ccc(C(=O)Nc2cc(C(F)(F)F)ccn2)cc1Nc1ncccc1-c1ncnc2[nH]cnc12 [Compound I-34, 3-((3-(9H-purin-6-yl)pyridin-2-yl)amino)-4-methyl-N-(4-(trifluoromethyl)pyridin-2-yl)benzamide]
Cc1ncc(NC(=O)c2ccnc(C3(C#N)CC3)c2)cc1Nc1ncccc1-c1ncnc2[nH]cnc12 [Compound I-54, N-(5-(3-(9H-purin-6-yl)pyridin-2-ylamino)-6-methylpyridin-3-yl)-2-(1-cyanocyclopropyl)isonicotinamide]

GI50, < 20 nM:
Cc1ccc(NC(=O)c2ccnc(C3(C#N)CCC3)c2)cc1Nc1ncccc1-c1ncnc2[nH]cnc12 [Compound I-66, N-(3-((3-(9H-purin-6-yl)pyridin-2-yl)amino)-4-methylphenyl)-2-(1-cyanocyclobutyl)isonicotinamide]
Cc1ccc(NC(=O)c2cc(C3(C#N)CCC3)ccn2)cc1Nc1ncccc1-c1ncnc2[nH]cnc12 [Compound I-64, N-(3-((3-(9H-purin-6-yl)pyridin-2-yl)amino)-4-methylphenyl)-4-(1-cyanocyclobutyl)picolinamide]
Cc1ccc(NC(=O)CC2CCCCCO2)cc1Nc1ncccc1-c1ncnc2[nH]cnc12 (centres unmarked) [Compound I-82, N-(3-((3-(9H-purin-6-yl)pyridin-2-yl)amino)-4-methylphenyl)-2-(oxepan-2-yl)acetamide]
Cc1nc2c(-c3cccnc3Nc3cc(NC(=O)c4cc(C(F)(F)F)ccn4)ccc3C)ncnc2[nH]1 [IA-126, N-(4-methyl-3-((3-(8-methyl-9H-purin-6-yl)pyridin-2-yl)amino)phenyl)-4-(trifluoromethyl)picolinamide]
Cc1ccc(NC(=O)CC2CCCCCC2)cc1Nc1ncccc1-c1ncnc2[nH]cnc12 [IA-113, N-(3-((3-(9H-purin-6-yl)pyridin-2-yl)amino)-4-methylphenyl)-2-cycloheptylacetamide]
Cc1ccc(NC(=O)c2cc(C3CC3)ccn2)cc1Nc1ncccc1-c1ncnc2[nH]cnc12 [Compound I-55, N-(3-(3-(9H-purin-6-yl)pyridin-2-ylamino)-4-methylphenyl)-4-cyclopropylpicolinamide]
Cc1ccc(NC(=O)C[C@@H]2CCC[C@@H](C(F)(F)F)C2)cc1Nc1ncccc1-c1ncnc2[nH]cnc12 (single isomer, unassigned) [IA-140]
Cc1ccc(NC(=O)c2cc(C(F)(F)F)cc(OCCO)n2)cc1Nc1ncccc1-c1ncnc2[nH]cnc12 [IA-98, N-(3-((3-(9H-purin-6-yl)pyridin-2-yl)amino)-4-methylphenyl)-6-(2-hydroxyethoxy)-4-(trifluoromethyl)picolinamide]
Cc1ccc(NC(=O)c2ccc(Cl)c(N(C)C)c2)cc1Nc1ncccc1-c1ncnc2[nH]cnc12 [Compound I-81, N-(3-((3-(9H-purin-6-yl)pyridin-2-yl)amino)-4-methylphenyl)-4-chloro-3-(dimethylamino)benzamide]
Cc1ccc(NC(=O)c2cc(C(F)(F)F)c(F)cn2)cc1Nc1ncccc1-c1ncnc2[nH]cnc12 [IA-115, N-(3-((3-(9H-purin-6-yl)pyridin-2-yl)amino)-4-methylphenyl)-5-fluoro-4-(trifluoromethyl)picolinamide]
Cc1ccc(C(=O)Nc2ccc(C)c(Nc3ncccc3-c3ncnc4[nH]cnc34)c2)cc1C#N [Compound I-43, N-(3-((3-(9H-purin-6-yl)pyridin-2-yl)amino)-4-methylphenyl)-3-cyano-4-methylbenzamide]

Source: US20240317752A1, “6-SUBSTITUTED-9H-PURINE DERIVATIVES AND RELATED USES” (Black Diamond Therapeutics, Inc., priority 2021, published 2024)
